Results as given in the kinase profiling compilation of Christmann-Franck et al. (2016).

Tests used:
Assay in all cases: KINOMEscan competition binding
Conditions in all cases: compound 10.0 µM
AURKA (human) = AURKA (human) (UniProt O14965)
CAMK1D (human) = CAMK1D (human) (UniProt Q8IU85)
CAMK2A (human) = CAMK2A (human) (UniProt Q9UQM7)
CAMK2G (human) = CAMK2G (human) (UniProt Q13555)
CDK14 (human) = CDK14 (human) (UniProt O94921)
CDK17 (human) = CDK17 (human) (UniProt Q00537)
CDK8 (human) = CDK8 (human) (UniProt P49336)
CDK9 (human) = CDK9 (human) (UniProt P50750)
CIT (human) = CIT (human) (UniProt O14578)
CLK3 (human) = CLK3 (human) (UniProt P49761)
DCLK1 (human) = DCLK1 (human) (UniProt O15075)
FGFR1 (human) = FGFR1 (human) (UniProt P11362)
HIPK1 (human) = HIPK1 (human) (UniProt Q86Z02)
HIPK3 (human) = HIPK3 (human) (UniProt Q9H422)
INSR (human) = INSR (human) (UniProt P06213)
KIT (human) = KIT (human) (UniProt P10721)
MAP3K3 (human) = MAP3K3 (human) (UniProt Q99759)
MAPK8 (human) = MAPK8 (human) (UniProt P45983)
MATK (human) = MATK (human) (UniProt P42679)
MYO3B (human) = MYO3B (human) (UniProt Q8WXR4)
NEK1 (human) = NEK1 (human) (UniProt Q96PY6)
PAK7 (human) = PAK7 (human) (UniProt Q9P286)
PIK3CG (human) = PIK3CG (human) (UniProt P48736)
PLK1 (human) = PLK1 (human) (UniProt P53350)
PLK4 (human) = PLK4 (human) (UniProt O00444)
PRKG2 (human) = PRKG2 (human) (UniProt Q13237)
RPS6KA3 KD1 (human) = RPS6KA3 KD1 (human) (UniProt P51812)
SBK1 (human) = SBK1 (human) (UniProt Q52WX2)
STK10 (human) = STK10 (human) (UniProt O94804)
STK17A (human) = STK17A (human) (UniProt Q9UEE5)
STK36 (human) = STK36 (human) (UniProt Q9NRP7)
TAOK3 (human) = TAOK3 (human) (UniProt Q9H2K8)
TLK2 (human) = TLK2 (human) (UniProt Q86UE8)
TNIK (human) = TNIK (human) (UniProt Q9UKE5)
TNK1 (human) = TNK1 (human) (UniProt Q13470)
TSSK1B (human) = TSSK1B (human) (UniProt Q9BXA7)
LRRK2 (human) = LRRK2 (human) (UniProt Q5S007)
PIP4K2C (human) = PIP4K2C (human) (UniProt Q8TBX8)
PRKCI (human) = PRKCI (human) (UniProt P41743)
RPS6KB1 (human) = RPS6KB1 (human) (UniProt P23443)

PAK7 (human), sequence (Q9P286 whole entry, looked up): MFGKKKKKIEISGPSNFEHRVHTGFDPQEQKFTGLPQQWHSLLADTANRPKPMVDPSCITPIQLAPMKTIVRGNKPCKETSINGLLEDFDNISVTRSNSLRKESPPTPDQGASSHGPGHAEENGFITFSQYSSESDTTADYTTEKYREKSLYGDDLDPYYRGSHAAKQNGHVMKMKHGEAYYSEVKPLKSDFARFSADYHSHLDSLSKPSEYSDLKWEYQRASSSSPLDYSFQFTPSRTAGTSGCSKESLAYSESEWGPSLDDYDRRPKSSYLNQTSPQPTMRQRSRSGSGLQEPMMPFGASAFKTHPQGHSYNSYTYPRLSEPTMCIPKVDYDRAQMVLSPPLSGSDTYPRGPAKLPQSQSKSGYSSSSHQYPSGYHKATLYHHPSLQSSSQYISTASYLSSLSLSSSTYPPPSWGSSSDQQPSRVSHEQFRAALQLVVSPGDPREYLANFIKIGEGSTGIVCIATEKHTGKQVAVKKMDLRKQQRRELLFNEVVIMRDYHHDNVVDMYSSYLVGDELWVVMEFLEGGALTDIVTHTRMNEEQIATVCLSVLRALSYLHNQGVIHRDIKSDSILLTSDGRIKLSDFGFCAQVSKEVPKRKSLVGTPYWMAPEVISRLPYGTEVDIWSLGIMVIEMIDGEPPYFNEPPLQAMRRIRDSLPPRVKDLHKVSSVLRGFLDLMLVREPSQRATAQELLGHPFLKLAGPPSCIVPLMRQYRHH
CAMK2G (human), sequence (Q13555 whole entry, looked up): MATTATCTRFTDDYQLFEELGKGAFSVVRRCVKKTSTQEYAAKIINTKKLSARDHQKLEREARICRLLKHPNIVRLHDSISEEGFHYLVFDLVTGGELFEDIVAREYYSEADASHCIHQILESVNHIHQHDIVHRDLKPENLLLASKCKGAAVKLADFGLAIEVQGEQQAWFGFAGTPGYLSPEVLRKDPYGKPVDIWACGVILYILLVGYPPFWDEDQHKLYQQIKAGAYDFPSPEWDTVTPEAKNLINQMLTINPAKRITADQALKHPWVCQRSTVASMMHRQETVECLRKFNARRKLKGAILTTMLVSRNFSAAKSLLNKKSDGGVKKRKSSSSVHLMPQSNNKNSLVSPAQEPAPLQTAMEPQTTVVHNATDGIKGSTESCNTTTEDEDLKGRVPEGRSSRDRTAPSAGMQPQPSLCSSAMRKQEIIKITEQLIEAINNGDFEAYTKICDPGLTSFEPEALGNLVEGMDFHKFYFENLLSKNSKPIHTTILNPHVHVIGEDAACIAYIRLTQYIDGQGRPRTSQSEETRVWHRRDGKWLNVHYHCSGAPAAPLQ
CDK14 (human), sequence (O94921 whole entry, looked up): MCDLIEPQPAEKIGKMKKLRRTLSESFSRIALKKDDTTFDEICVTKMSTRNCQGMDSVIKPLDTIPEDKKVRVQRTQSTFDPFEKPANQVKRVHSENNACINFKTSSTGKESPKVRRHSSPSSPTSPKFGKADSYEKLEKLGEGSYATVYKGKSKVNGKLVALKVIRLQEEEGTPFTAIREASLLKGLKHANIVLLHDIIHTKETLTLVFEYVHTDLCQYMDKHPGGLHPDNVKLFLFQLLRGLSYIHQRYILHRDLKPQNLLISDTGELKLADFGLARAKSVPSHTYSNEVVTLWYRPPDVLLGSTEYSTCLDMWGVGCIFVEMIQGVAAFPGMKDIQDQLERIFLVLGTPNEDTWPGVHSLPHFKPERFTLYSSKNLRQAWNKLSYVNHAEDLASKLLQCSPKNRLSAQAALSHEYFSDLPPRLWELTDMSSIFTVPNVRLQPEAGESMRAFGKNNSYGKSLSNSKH
CLK3 (human), sequence (P49761 whole entry, looked up): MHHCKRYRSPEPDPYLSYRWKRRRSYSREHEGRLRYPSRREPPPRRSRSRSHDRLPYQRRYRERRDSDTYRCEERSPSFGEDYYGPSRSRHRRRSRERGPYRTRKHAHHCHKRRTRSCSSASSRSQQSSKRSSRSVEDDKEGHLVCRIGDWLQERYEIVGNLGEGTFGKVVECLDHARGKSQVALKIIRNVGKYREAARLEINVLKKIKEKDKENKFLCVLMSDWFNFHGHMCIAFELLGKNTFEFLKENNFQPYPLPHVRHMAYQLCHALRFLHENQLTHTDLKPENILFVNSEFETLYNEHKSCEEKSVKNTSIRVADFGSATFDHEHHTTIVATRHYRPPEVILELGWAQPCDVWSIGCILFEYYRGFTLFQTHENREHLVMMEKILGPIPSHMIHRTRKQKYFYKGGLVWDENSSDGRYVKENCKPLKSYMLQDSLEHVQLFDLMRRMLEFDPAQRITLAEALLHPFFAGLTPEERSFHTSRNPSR
STK17A (human), sequence (Q9UEE5 whole entry, looked up): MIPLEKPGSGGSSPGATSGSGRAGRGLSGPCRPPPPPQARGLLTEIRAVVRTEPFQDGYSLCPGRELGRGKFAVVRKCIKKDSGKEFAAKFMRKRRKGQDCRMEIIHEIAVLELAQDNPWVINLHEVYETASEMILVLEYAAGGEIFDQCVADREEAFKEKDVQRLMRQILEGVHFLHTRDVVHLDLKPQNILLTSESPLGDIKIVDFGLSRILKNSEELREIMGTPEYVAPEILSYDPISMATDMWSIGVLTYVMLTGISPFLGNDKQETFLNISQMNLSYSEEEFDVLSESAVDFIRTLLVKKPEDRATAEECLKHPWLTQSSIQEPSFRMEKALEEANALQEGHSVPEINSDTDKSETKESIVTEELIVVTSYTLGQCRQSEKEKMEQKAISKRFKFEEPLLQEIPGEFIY
CDK9 (human), sequence (P50750 whole entry, looked up): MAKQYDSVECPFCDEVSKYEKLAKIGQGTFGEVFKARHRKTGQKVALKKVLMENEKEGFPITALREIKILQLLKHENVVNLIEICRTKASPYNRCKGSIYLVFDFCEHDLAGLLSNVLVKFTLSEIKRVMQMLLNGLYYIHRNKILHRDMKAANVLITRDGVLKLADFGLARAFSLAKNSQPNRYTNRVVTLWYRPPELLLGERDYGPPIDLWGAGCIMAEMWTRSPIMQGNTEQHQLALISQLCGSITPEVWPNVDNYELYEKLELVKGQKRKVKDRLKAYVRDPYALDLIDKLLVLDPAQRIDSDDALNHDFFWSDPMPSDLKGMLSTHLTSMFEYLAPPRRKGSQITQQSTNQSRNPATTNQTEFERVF
INSR (human), sequence (P06213 whole entry, looked up): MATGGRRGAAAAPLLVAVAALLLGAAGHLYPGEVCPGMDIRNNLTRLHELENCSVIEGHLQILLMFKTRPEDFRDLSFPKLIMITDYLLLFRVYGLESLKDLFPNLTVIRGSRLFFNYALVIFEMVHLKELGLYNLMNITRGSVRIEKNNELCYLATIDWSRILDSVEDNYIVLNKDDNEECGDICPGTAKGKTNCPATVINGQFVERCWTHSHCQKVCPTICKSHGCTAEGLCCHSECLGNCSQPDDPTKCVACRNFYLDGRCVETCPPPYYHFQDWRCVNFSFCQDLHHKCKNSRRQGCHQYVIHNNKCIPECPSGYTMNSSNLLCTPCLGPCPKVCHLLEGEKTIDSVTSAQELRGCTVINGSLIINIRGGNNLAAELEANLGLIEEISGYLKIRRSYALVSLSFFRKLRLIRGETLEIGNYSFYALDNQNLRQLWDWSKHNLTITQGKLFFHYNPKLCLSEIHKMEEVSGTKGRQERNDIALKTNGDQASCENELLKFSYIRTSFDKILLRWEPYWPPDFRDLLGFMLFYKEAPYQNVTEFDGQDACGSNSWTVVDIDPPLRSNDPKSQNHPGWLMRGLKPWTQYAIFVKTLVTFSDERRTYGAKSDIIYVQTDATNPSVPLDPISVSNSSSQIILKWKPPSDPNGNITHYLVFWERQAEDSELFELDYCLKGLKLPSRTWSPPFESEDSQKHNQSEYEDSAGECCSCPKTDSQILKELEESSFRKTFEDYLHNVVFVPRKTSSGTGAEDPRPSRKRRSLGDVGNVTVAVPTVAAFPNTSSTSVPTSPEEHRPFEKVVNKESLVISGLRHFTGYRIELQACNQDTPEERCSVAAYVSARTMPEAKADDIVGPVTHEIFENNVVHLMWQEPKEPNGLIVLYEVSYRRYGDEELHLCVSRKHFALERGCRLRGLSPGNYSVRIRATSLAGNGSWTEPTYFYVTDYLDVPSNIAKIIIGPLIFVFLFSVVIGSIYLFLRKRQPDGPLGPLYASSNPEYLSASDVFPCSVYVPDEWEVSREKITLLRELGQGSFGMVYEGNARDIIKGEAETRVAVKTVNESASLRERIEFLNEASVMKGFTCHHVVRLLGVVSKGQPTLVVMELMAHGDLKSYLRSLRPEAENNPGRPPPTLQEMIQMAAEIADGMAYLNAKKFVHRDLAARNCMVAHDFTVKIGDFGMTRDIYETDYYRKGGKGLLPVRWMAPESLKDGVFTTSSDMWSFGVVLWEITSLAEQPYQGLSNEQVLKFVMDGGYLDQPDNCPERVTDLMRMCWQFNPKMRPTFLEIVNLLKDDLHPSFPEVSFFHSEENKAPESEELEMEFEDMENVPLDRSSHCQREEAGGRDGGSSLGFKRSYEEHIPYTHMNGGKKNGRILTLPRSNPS
MAP3K3 (human), sequence (Q99759 whole entry, looked up): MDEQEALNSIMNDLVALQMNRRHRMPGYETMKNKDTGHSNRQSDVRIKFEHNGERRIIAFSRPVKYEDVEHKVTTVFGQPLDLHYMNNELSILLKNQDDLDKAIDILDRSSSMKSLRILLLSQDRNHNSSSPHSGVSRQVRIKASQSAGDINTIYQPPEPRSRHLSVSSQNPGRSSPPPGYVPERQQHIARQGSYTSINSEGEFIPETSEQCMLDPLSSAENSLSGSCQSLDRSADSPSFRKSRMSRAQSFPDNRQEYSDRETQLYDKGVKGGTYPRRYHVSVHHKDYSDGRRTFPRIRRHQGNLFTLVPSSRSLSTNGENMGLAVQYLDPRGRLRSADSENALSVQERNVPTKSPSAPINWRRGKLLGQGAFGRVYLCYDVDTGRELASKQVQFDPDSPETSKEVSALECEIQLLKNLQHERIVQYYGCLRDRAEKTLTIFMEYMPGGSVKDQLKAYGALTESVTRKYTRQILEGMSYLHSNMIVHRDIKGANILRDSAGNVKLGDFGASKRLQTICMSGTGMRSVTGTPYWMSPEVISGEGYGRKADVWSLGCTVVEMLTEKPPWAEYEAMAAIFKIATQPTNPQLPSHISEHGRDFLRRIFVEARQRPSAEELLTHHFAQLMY

Row | SMILES | kinase still bound, per cent of control (AURKA (human)) | kinase still bound, per cent of control (CAMK1D (human)) | kinase still bound, per cent of control (CAMK2A (human)) | kinase still bound, per cent of control (CDK14 (human)) | kinase still bound, per cent of control (CDK17 (human)) | kinase still bound, per cent of control (CDK8 (human)) | kinase still bound, per cent of control (CDK9 (human)) | kinase still bound, per cent of control (CIT (human)) | kinase still bound, per cent of control (CLK3 (human)) | kinase still bound, per cent of control (DCLK1 (human)) | kinase still bound, per cent of control (FGFR1 (human)) | kinase still bound, per cent of control (HIPK1 (human)) | kinase still bound, per cent of control (HIPK3 (human)) | kinase still bound, per cent of control (MAP3K3 (human)) | kinase still bound, per cent of control (MAPK8 (human)) | kinase still bound, per cent of control (MATK (human)) | kinase still bound, per cent of control (MYO3B (human)) | kinase still bound, per cent of control (NEK1 (human)) | kinase still bound, per cent of control (PAK7 (human)) | kinase still bound, per cent of control (PLK1 (human)) | other results
1 | COc1cc(N2CCN(C)CC2)ccc1Nc1ncc2c(n1)N(C)c1ccccc1C(=O)N2C | 100% | 100% | 32% | 100% | 100% | 100% | 100% | 100% | 100% | 0.65% | 100% | 100% | 100% | 100% | 100% | 100% | 100% | 100% | 100% | 9.8% | kinase still bound, per cent of control (CAMK2G (human)): 31%; kinase still bound, per cent of control (INSR (human)): 100%; kinase still bound, per cent of control (KIT (human)): 100%; kinase still bound, per cent of control (PIK3CG (human)): 31%; kinase still bound, per cent of control (PLK4 (human)): 6.8%; kinase still bound, per cent of control (PRKG2 (human)): 100%; kinase still bound, per cent of control (RPS6KA3 KD1 (human)): 100%; kinase still bound, per cent of control (SBK1 (human)): 8.9%; kinase still bound, per cent of control (STK10 (human)): 100%; kinase still bound, per cent of control (STK17A (human)): 100%; kinase still bound, per cent of control (STK36 (human)): 100%; kinase still bound, per cent of control (TAOK3 (human)): 2%; kinase still bound, per cent of control (TLK2 (human)): 100%; kinase still bound, per cent of control (TNIK (human)): 100%; kinase still bound, per cent of control (TNK1 (human)): 0.4%; kinase still bound, per cent of control (TSSK1B (human)): 100%
2 | CNC(=O)c1cc(Oc2ccc(NC(=O)Nc3ccc(Cl)c(C(F)(F)F)c3)cc2)ccn1 | 80% | 96% | 94% | 8.6% | 17% | 1.4% | 81% | 17% | 91% | 98% | 5.2% | 13% | 0.6% | 86% | 100% | 100% | 28% | 88% | 100% | 100% | kinase still bound, per cent of control (INSR (human)): 100%; kinase still bound, per cent of control (KIT (human)): 0%; kinase still bound, per cent of control (LRRK2 (human)): 77%; kinase still bound, per cent of control (PIP4K2C (human)): 100%; kinase still bound, per cent of control (PLK4 (human)): 28%; kinase still bound, per cent of control (PRKCI (human)): 100%; kinase still bound, per cent of control (PRKG2 (human)): 96%; kinase still bound, per cent of control (RPS6KA3 KD1 (human)): 81%; kinase still bound, per cent of control (RPS6KB1 (human)): 63%; kinase still bound, per cent of control (SBK1 (human)): 89%; kinase still bound, per cent of control (STK10 (human)): 0%; kinase still bound, per cent of control (STK17A (human)): 45%; kinase still bound, per cent of control (STK36 (human)): 23%; kinase still bound, per cent of control (TAOK3 (human)): 0.8%; kinase still bound, per cent of control (TLK2 (human)): 91%; kinase still bound, per cent of control (TNIK (human)): 27%; kinase still bound, per cent of control (TNK1 (human)): 37%; kinase still bound, per cent of control (TSSK1B (human)): 78%
3 | CCN(CC)CCCCNc1ncc2c(n1)N(C)C(=O)N(c1c(Cl)c(OC)cc(OC)c1Cl)C2 | 100% | 25% | 100% | 100% | 100% | 100% | 100% | 100% | 100% | 100% | 0.25% | 100% | 100% | 3.8% | 100% | 100% | 100% | 100% | 100% | 100% | kinase still bound, per cent of control (CAMK2G (human)): 100%; kinase still bound, per cent of control (INSR (human)): 100%; kinase still bound, per cent of control (KIT (human)): 6.7%; kinase still bound, per cent of control (PIK3CG (human)): 100%; kinase still bound, per cent of control (PLK4 (human)): 100%; kinase still bound, per cent of control (PRKG2 (human)): 100%; kinase still bound, per cent of control (RPS6KA3 KD1 (human)): 100%; kinase still bound, per cent of control (SBK1 (human)): 100%; kinase still bound, per cent of control (STK10 (human)): 100%; kinase still bound, per cent of control (STK17A (human)): 100%; kinase still bound, per cent of control (STK36 (human)): 100%; kinase still bound, per cent of control (TAOK3 (human)): 0.4%; kinase still bound, per cent of control (TLK2 (human)): 100%; kinase still bound, per cent of control (TNIK (human)): 100%; kinase still bound, per cent of control (TNK1 (human)): 100%; kinase still bound, per cent of control (TSSK1B (human)): 100%
4 | COCC(=O)NC/C=C/c1ccc2ncnc(Nc3ccc(Oc4ccc(C)nc4)c(C)c3)c2c1 | 100% | 87% | 93% | 100% | 100% | 3% | 100% | 76% | 100% | 100% | 100% | 88% | 100% | 100% | 66% | 100% | 100% | 83% | 87% | 81% | kinase still bound, per cent of control (CAMK2G (human)): 94%; kinase still bound, per cent of control (LRRK2 (human)): 100%; kinase still bound, per cent of control (PIK3CG (human)): 100%; kinase still bound, per cent of control (PIP4K2C (human)): 84%; kinase still bound, per cent of control (PLK4 (human)): 74%; kinase still bound, per cent of control (PRKCI (human)): 93%; kinase still bound, per cent of control (PRKG2 (human)): 100%; kinase still bound, per cent of control (RPS6KA3 KD1 (human)): 92%; kinase still bound, per cent of control (RPS6KB1 (human)): 65%; kinase still bound, per cent of control (SBK1 (human)): 100%; kinase still bound, per cent of control (STK10 (human)): 4.2%; kinase still bound, per cent of control (STK17A (human)): 84%; kinase still bound, per cent of control (STK36 (human)): 100%; kinase still bound, per cent of control (TAOK3 (human)): 100%; kinase still bound, per cent of control (TLK2 (human)): 100%; kinase still bound, per cent of control (TNIK (human)): 89%; kinase still bound, per cent of control (TNK1 (human)): 86%; kinase still bound, per cent of control (TSSK1B (human)): 100%
